Read-outs that look alike come from different tables or passages of the source. Each block holds one compound with its values, some of them ahead of it. *1 amine or outer side, *2 acyl side, *3 side chain or, on linkers, in order; H or OH if unused. Where a SMILES comes first, the peptide text is derived from it. [ ]: non-standard residue; d: D form. Cysteamide = C(CS[*:3])N[*:1]; βAla = NCCC(=O)O
Tests used:
HEK2 = assay: cells; format: cell-based
Protocol: (§1) Adherent HS68 fibroblasts, HeLa, PC3, CEM-SS, U20S, MCF-7, and HEK2 cell lines (from American Type Culture Collection (ATCC)), as well as MEF and PBMC, were cultured in Dulbecco's Modified Eagle's Medium supplemented with 2 mM glutamine, 1% antibiotics (streptomycin 10,000 μg/ml, penicillin, 10,000 IU/ml) and 10% (w/v) foetal calf serum (FCS), at 37° C. in a humidified atmosphere containing 5% CO2. Stock solutions of VEPEP-4/peptide particles were prepared by complexing 1 μM peptide with VEPEP-4 peptides at a molar ratio of 1/20 for 30 min at 37° C. Lower concentrations of VEPEP-4-carrier/peptide (from 500 nM to 1 μM) were obtained by serial dilution of the stock complexes in PBS, in order to preserve the same VEPEP-4-carrier/peptide ratio. 150,000 cells seeded in a 35 mm dish the day prior transfection, were grown to 60% confluence and overlaid with 200 μl of preformed complexes, incubated for 3-5 min, then 400 μl of DMEM were added. After 30 min. incubation at 37° C., 1 ml of fresh DMEM containing 16% foetal calf serum (FCS) was added in order to reach a final FCS concentration of 10%, without removing the overlay of VEPEP-4/peptide complexes. Cells were returned to the incubator for 24 hrs. For CDK2 derived peptides cell proliferation was monitored after 24 and 48 hrs. For peptide-targeting integrase, HIV proliferation was analyzed on activated PBMC cells after 3 and 5 days. Data reported are an average of 3 or 4 distinct experiments.
(§2) VEPEP-4 peptides have been used for the delivery of different small fluorescent hydrophobic and charged molecules as well as doxorubicin on different cell lines including primary cell lines and challenging cell lines. VEPEP-4 peptides form stable particles with small aromatic molecules including doxorubicin. Effect of VEPEP-4 mediated delivery of doxorubicin has been investigated on cancer cell viability. […] The impact of carrier peptides to improve cellular uptake of small molecule drugs was estimated by following inhibition of proliferation of cancer cells.

Hela [1] = assay: cells
Protocol: Cells were returned to the incubator for 24 hrs.
Effect of VEPEP-4 mediated delivery of doxorubicin has been investigated on cancer cell viability.

Peptide (C4) = assay: Fluorescence titration of VEPEP-4 binding to peptide cargo
Protocol: (§3) Fluorescence experiments were performed on a PTI spectrofluorimeter at 25° C. in a NaCl 154 mM buffer. Intrinsic Trp-fluorescence of VEPEP-4 was excited at 290 nm and emission spectrum was recorded between 310 and 400 nm, with a spectral band-pass of 2 and 8 nm for excitation and emission, respectively. FITC-fluorescence of labelled-peptide was excited at 492 nm and emission recorded between 500 and 580 nm. For VEPEP-4/peptide interaction, 0.5 μM of FITC-labelled peptide was titrated by increasing concentrations of VEPEP-4. All measurements were corrected for the dilution and curve fitting were performed by using Grafit software (Erithacus).
(§4) VEPEP-4i (SEQ ID No: 1) and VEPEP-4j (SEQ ID No: 2) peptides form stable complexes with peptides. The binding of cargos to VEPEP-4 was monitored by fluorescence spectroscopy using the both intrinsic Trp group of VEPEP-4 (4 Trp-residues) and extrinsic fluorescently labeled cargoes (using Cy5 or FITC). Curve fitting reveal that VEPEP-4 strongly binds the different cargoes with dissociation constant in the nanomolar range (Table 1 and FIG. 1).

MEF = assay: VEPEP-4 mediated delivery of fluorescently labelled peptide (fluorescence microscopy or FACS); format: cell-based, Mouse; conditions: uptake of fluorescently labelled peptide cargo
Protocol: as §1
(§5) VEPEP-4 peptides have been used for the delivery of different peptides into different cell lines, including primary cell lines, stem cell lines and challenging cell lines. Peptide delivery was monitored using three approaches, fluorescence spectroscopy and monitoring biological responses (anti proliferation and anti viral responses).
(§6) 1—Fluorescently labelled peptide was visualized in the different cell lines using fluorescence microscopy or FACS sorting (Table 3). In most of the cell lines, the uptake of Cy-5 labelled peptides is more than 70% of the cells.

HIV-1LAI = format: cell-based; conditions: for IC50: 1LAI
Protocol: as §1
The anti-HIV activities of the peptides (PC4D, PC4S, PC6D, PC6S) and VEPEP-4/peptides complexes were assayed according to previously described method (Roisin et al, 2004). Phytohemagglutinin-P (PHA-P)-activated peripheral blood mononuclear cells (PBMC) treated by increasing concentrations of peptide (from 100 to 0.1 nM), one hour later, were infected with hundred 50% tissue culture infectious doses (TCID50) per 100,000 cells of the HIV-1-LAI or different resistant strains (Barre-Sinoussi et al, 1983). Viruses were amplified in vitro on PHA-P-activated PBMC. Viral stock was titrated using PHA-P-activated PBMC, and 50% TCID50 were calculated using Kärber's formula (Karber 1931). Samples were maintained throughout the culture, and cell supernatants were collected at day 7 post-infection and stored at −20 C. Viral replication was measured by quantifying RT activity in cell culture supernatants. In parallel, cytotoxicity of the compounds was evaluated in uninfected PHA-P-activated PBMC by colorimetric 3-(4-5 dimethylthiazol-2-yl)2,5 diphenyl tetrazolium bromite (MTT) assay on day 7 (Mossmann 1983). Experiments were performed in triplicate and repeated with another blood donor. […]

CEM-SS = assay: VEPEP-4 mediated delivery of fluorescently labelled peptide (fluorescence microscopy or FACS); format: cell-based, Human; conditions: uptake of fluorescently labelled peptide cargo
Protocol: as §1, §5, §6

PBMC = assay: as above; format: cell-based, Human; conditions: uptake of fluorescently labelled peptide cargo
Protocol: as §1, §5, §6

U2OS = assay: as above; format: cell-based, Human; conditions: uptake of fluorescently labelled peptide cargo
Protocol: as §1, §5, §6

HS-68 = assay: as above; format: cell-based, Human; conditions: HS-68, uptake of fluorescently labelled peptide cargo
Protocol: as §1, §5, §6

MCF7 [2] = assay: as above; format: cell-based, Human; conditions: MCF7, uptake of fluorescently labelled peptide cargo
Protocol: as §1, §5, §6

Hela [3] = assay: as above; format: cell-based, Human; conditions: uptake of fluorescently labelled peptide cargo
Protocol: as §1, §5, §6

MCF7 [4] = format: cell-based, Human
Protocol: as §1, §2

Cyclic peptide (PC4) = assay: Fluorescence titration of VEPEP-4 binding to cyclic peptide cargo
Protocol: as §3, §4

[5] = Fluorescence titration of VEPEP-4 binding to small molecule cargo
Protocol: as §3
VEPEP-4 peptides also form stable particles with small aromatic molecules including daunomycin, Paclitaxel, doxorubicin, porphyrin and charged molecules including nucleotide, nucleoside and peptide-analogue of nucleic acids or fluorescent dyes. The dissociation constant for small hydrophobic molecule ranges between 0.05 to 2 μM, depending on the nature of the dyes and of the peptides.
Binding of small molecule cargoes has been investigated in detail depending on the nature of the SMH. Several hydrophobic and charges molecules have been use (Daunomycin, Paclitaxel, doxorubicin, porphyrin) and charged molecules (nucleotide, nucleoside and fluorescent dyes).

Protocol for Hela cells: (§7) Adherent HS68 fibroblasts, HeLa, PC3, CEM-SS, U20S, MCF-7, and HEK2 cell lines (from American Type Culture Collection (ATCC)), as well as MEF and PBMC, were cultured in Dulbecco's Modified Eagle's Medium supplemented with 2 mM glutamine, 1% antibiotics (streptomycin 10,000 μg/ml, penicillin, 10,000 IU/ml) and 10% (w/v) foetal calf serum (FCS), at 37° C. in a humidified atmosphere containing 5% CO2. Stock solutions of VEPEP-4/peptide particles were prepared by complexing 1 μM peptide with VEPEP-4 peptides at a molar ratio of 1/20 for 30 min at 37° C. […] 150,000 cells seeded in a 35 mm dish the day prior transfection, were grown to 60% confluence and overlaid with 200 μl of preformed complexes, incubated for 3-5 min, then 400 μl of DMEM were added. After 30 min. incubation at 37° C., 1 ml of fresh DMEM containing 16% foetal calf serum (FCS) was added in order to reach a final FCS concentration of 10%, without removing the overlay of VEPEP-4/peptide complexes. Cells were returned to the incubator for 24 hrs. For CDK2 derived peptides cell proliferation was monitored after 24 and 48 hrs. […] Data reported are an average of 3 or 4 distinct experiments.
Protocol for MCF7 cells: as §7

IC50 (Hela [1]; Homo sapiens, HeLa): 25000 nM
Compound: COc1cccc2c1C(=O)c1c(O)c3c(c(O)c1C2=O)C[C@@](O)(C(=O)CO)C[C@@H]3O[C@H]1C[C@H](N)[C@H](O)[C@H](C)O1 [Doxo, doxorubicin, reference compound]
IC50 (HEK2; HEK2, Free drug, read-out: IC50): 10000 nM | fold more efficient when complexed with VEPEP-4 (HEK2; complexed versus free drug, cancer cells of Table 5): 25 fold

Compound: CC(=O)NCCC(=O)N[C@@H](Cc1c[nH]c2ccccc12)C(=O)N[C@@H](Cc1c[nH]c2ccccc12)C(=O)N[C@@H](CCCNC(=N)N)C(=O)N[C@@H](CC(C)C)C(=O)N[C@@H](CO)C(=O)N[C@@H](CC(C)C)C(=O)N[C@@H](CCCNC(=N)N)C(=O)N[C@@H](Cc1c[nH]c2ccccc12)C(=O)N[C@@H](Cc1c[nH]c2ccccc12)C(=O)NCCS [VEPEP-3i, X1WWRLSLRWW] (Ac-[βAla]WWRLSLRWW-Cysteamide)
Binding (Peptide (C4)): yes | Kd (Peptide (C4)): 10 to 20 nM | IC50 (HEK2): 400 nM | Efficiency (MEF): 84% | IC50 (HIV-1LAI): 0.24 ± 0.1 nM | Efficiency (CEM-SS): 70% | Efficiency (PBMC): 80% | Efficiency (U2OS): 78% | Efficiency (HS-68): 80% | Efficiency (MCF7 [2]): 50% | Efficiency (Hela [3]): 65% | IC50 (Hela [1]): 1200 nM | IC50 (MCF7 [4]): 500 nM | Binding (Cyclic peptide (PC4)): yes | Kd (Cyclic peptide (PC4)): 50 to 100 nM | Binding ([5]; cargo Doxorubicin): yes | Kd ([5]; cargo Doxorubicin): 50 nM | Binding ([5]; cargo FAM-guanosine): yes | Kd ([5]; cargo FAM-guanosine): 60 nM | Binding ([5]; cargo porphyrin): yes | Kd ([5]; cargo porphyrin): 400 nM

Compound: CC(=O)NCCC(=O)N[C@@H](Cc1c[nH]c2ccccc12)C(=O)N[C@@H](Cc1c[nH]c2ccccc12)C(=O)N[C@@H](CCCNC(=N)N)C(=O)N[C@@H](CC(C)C)C(=O)N[C@@H](CCCNC(=N)N)C(=O)N[C@@H](CO)C(=O)N[C@@H](Cc1c[nH]c2ccccc12)C(=O)N[C@@H](Cc1ccccc1)C(=O)N[C@@H](CCCNC(=N)N)C(=O)NCCS [Short 3, X1WWRLRSWFR] (Ac-[βAla]WWRLRSWFR-Cysteamide)
Binding (Peptide (C4)): yes | Kd (Peptide (C4)): 10 to 20 nM | IC50 (HEK2): 1100 nM | IC50 (Hela [1]): 1200 nM | IC50 (MCF7 [4]): 900 nM | Binding (Cyclic peptide (PC4)): yes | Kd (Cyclic peptide (PC4)): 50 to 100 nM | Binding ([5]; cargo Doxorubicin): yes | Kd ([5]; cargo Doxorubicin): 100 nM | Binding ([5]; cargo FAM-guanosine): yes | Kd ([5]; cargo FAM-guanosine): 100 nM | Binding ([5]; cargo porphyrin): yes | Kd ([5]; cargo porphyrin): 700 nM

Compound: CC(=O)NCCC(=O)N[C@@H](Cc1c[nH]c2ccccc12)C(=O)N[C@@H](Cc1ccccc1)C(=O)N[C@@H](CCCNC(=N)N)C(=O)N[C@@H](CC(C)C)C(=O)N[C@@H](CO)C(=O)N[C@@H](CC(C)C)C(=O)N[C@@H](CCCNC(=N)N)C(=O)N[C@@H](Cc1ccccc1)C(=O)N[C@@H](Cc1c[nH]c2ccccc12)C(=O)N[C@@H](CCCNC(=N)N)C(=O)NCCS [VEPEP-3j, X1WFRLSLRFWR] (Ac-[βAla]WFRLSLRFWR-Cysteamide)
Binding (Peptide (C4)): yes | Kd (Peptide (C4)): 10 to 20 nM | IC50 (HEK2): 300 nM | Efficiency (MEF): 70% | IC50 (HIV-1LAI): 0.17 ± 0.07 nM | Efficiency (CEM-SS): 65% | Efficiency (PBMC): 80% | Efficiency (U2OS): 81% | Efficiency (HS-68): 80% | Efficiency (MCF7 [2]): 65% | Efficiency (Hela [3]): 62% | IC50 (Hela [1]): 800 nM | IC50 (MCF7 [4]): 200 nM | Binding (Cyclic peptide (PC4)): yes | Kd (Cyclic peptide (PC4)): 50 to 100 nM | Binding ([5]; cargo Doxorubicin): yes | Kd ([5]; cargo Doxorubicin): 70 nM | Binding ([5]; cargo FAM-guanosine): yes | Kd ([5]; cargo FAM-guanosine): 50 nM | Binding ([5]; cargo porphyrin): yes | Kd ([5]; cargo porphyrin): 500 nM

Compound: TWFTEWFT (Ac-TWFTEWFT-Cysteamide; SMILES CC(=O)N[C@H](C(=O)N[C@@H](Cc1c[nH]c2ccccc12)C(=O)N[C@@H](Cc1ccccc1)C(=O)N[C@H](C(=O)N[C@@H](CCC(=O)O)C(=O)N[C@@H](Cc1c[nH]c2ccccc12)C(=O)N[C@@H](Cc1ccccc1)C(=O)N[C@H](C(=O)NCCS)[C@@H](C)O)[C@@H](C)O)[C@@H](C)O) [PC4S, scrambled peptide, control of PC4D, reference compound]
anti viral activity (HIV-1LAI; scrambled peptide, PBMC infected by HIV-1LAI): do not show any anti viral activity

IC50 (MCF7 cells): 60 ± 12 nM | IC50 (Hela cells): 50 ± 15 nM
Compound: CSCC[C@H](NC(=O)[C@H](CCCNC(=N)N)NC(=O)[C@@H](NC(=O)[C@H](CCC(N)=O)NC(=O)[C@H](CCCCN)NC(=O)[C@@H](N)CCCCN)C(C)C)C(=O)N[C@@H](C)C(=O)N[C@@H](Cc1c[nH]cn1)C(=O)N[C@@H](CC(C)C)C(=O)N[C@H](C(=O)N[C@@H](CC(C)C)C(=O)N[C@H](C(=O)O)[C@@H](C)O)C(C)C [C4, KKQVRMAHLVLT] (H-KKQVRMAHLVLT-OH; N-terminus and C-terminus assumed)
concentration sufficient to block proliferation (MCF7 cells; MCF7, C4 delivered by VEPEP-4): 100 nM | concentration sufficient to block proliferation (Hela cells; Hela, C4 delivered by VEPEP-4): 100 nM

Compound: CC(=O)NCCC(=O)N[C@@H](Cc1c[nH]c2ccccc12)C(=O)N[C@@H](Cc1ccccc1)C(=O)N[C@@H](CCCNC(=N)N)C(=O)N[C@@H](CC(C)C)C(=O)N[C@@H](CO)C(=O)N[C@@H](CC(C)C)C(=O)N[C@@H](CCCNC(=N)N)C(=O)N[C@@H](Cc1ccccc1)C(=O)N[C@@H](Cc1c[nH]c2ccccc12)C(=O)NCCS [Short 4, X1WFRLSLRFW] (Ac-[βAla]WFRLSLRFW-Cysteamide)
Binding (Peptide (C4)): yes | Kd (Peptide (C4)): 10 to 20 nM | IC50 (HEK2): 500 nM | Efficiency (MEF): 67% | IC50 (HIV-1LAI): 0.37 ± 0.1 nM | Efficiency (CEM-SS): 74% | Efficiency (PBMC): 65% | Efficiency (U2OS): 65% | Efficiency (HS-68): 87% | Efficiency (MCF7 [2]): 78% | Efficiency (Hela [3]): 58% | IC50 (Hela [1]): 600 nM | IC50 (MCF7 [4]): 500 nM | Binding (Cyclic peptide (PC4)): yes | Kd (Cyclic peptide (PC4)): 50 to 100 nM | Binding ([5]; cargo Doxorubicin): yes | Kd ([5]; cargo Doxorubicin): 10 nM | Binding ([5]; cargo FAM-guanosine): yes | Kd ([5]; cargo FAM-guanosine): 70 nM | Binding ([5]; cargo porphyrin): yes | Kd ([5]; cargo porphyrin): 600 nM

— patent US9834581B2, “Cell penetrating peptides for intracellular delivery of molecules” (AADIGEN, LLC, priority 2012, dated 2017)
